Laboratory results as given in patent US20080103198A1, “METHODS FOR TREATMENT OF COCHLEAR AND VESTIBULAR DISORDERS” (priority 2006, published 2008).

What was measured:
Li-pilo induced SE = assay: Lithium-pilocarpine model of temporal lobe epilepsy (Example 1): mortality and spontaneous recurrent seizures; format: in vivo, rat
Text: The model induced in rats by pilocarpine associated with lithium (Li-Pilo) reproduces most of the clinical and neurophysiological features of human temporal lobe epilepsy (Turski et al., 1989, Synapse 3:154-171; Cavalheiro, 1995, Ital J Neurol Sci 16:33-37). In adult rats, the systemic administration of pilocarpine leads to status epilepticus (SE). The lethality rate reaches 30-50% during the first days. In the surviving animals, neuronal damage predominates within the hippocampal formation, the piriform and entorhinal cortices, thalamus, amygdaloid complex, neocortex and substantia nigra.
Male Wistar rats weighing 225-250 g, provided by Janvier Breeding Center (Le Genest-St-lste, France) were housed under controlled standard conditions (light/dark cycle, 7.00 a.m.-7.00 p.m. lights on), with food and water available ad libitum. All animal experimentation was performed in accordance with the rules of the European Communities Council Directive of Nov. 24, 1986 (86/609/EEC), and the French Department of Agriculture (License No 67-97). For electrode implantation, rats were anesthetized by an i.p. injection of 2.5 mg/kg diazepam (DZP, Valium, Roche, France) and […] ketamine chlorhydrate (Imalgene 1000, Rhone Merrieux, France). Four single-contact recording electrodes were placed on the skull, over the parietal cortex, two on each side.
All rats received lithium chloride (3 meq/kg, i.p., Sigma, St Louis, Mo., U.S.A.); about 20 h later, animals were placed into plexiglas boxes, in order to record baseline cortical EEG. Methylscopolamine bromide (1 mg/kg, s.c., Sigma) was administered to limit the peripheral effects of the convulsant. SE was induced by injecting pilocarpine hydrochloride (25 mg/kg, s.c., Sigma) 30 min after methyl-scopolamine. The bilateral EEG cortical activity was recorded during the whole duration of SE and behavioral changes were noted.
The effects of increasing doses of the test compound were studied on 3 groups of rats. The animals of the first group received 10 mg/kg of the test compound, i.p., 1 h after the onset of SE (pilo-test10) while the animals of groups 2 and 3 received 30 and 60 mg/kg of the test compound (pilo-test30 and pilo-test60), respectively.
Another group was injected with 2 mg/kg diazepam (DZP, i.m.) at 1 h after the onset of SE which are our standard treatment to improve animals survival after SE (pilo-DZP). The control group received saline instead of pilocarpine and the test compound (saline-saline). The pilo-test compound rats surviving SE were then injected about 10 h after the first test compound injection with a second i.p. injection of the same dose of the test compound and were maintained under a twice daily treatment with the test compound for 6 additional days. Pilo-DZP received a second injection of 1 mg/kg DZP on the day of SE at about 10 h after the first one. Thereafter, Pilo-DZP and saline-saline rats received twice daily an equivalent volume of saline.
The effects of the test compound on the EEG and on the latency to occurrence of SRS were investigated by daily video recording of the animals for 10 h per day and the recording of the electrographic activity twice a week for 8 h.
For the comparison of the characteristics of SE in pilo-saline and pilo-test compound animals, a non-paired Student's t-test was used. The comparison between the number of rats seizing in both groups was performed by means of a Chi square test. For neuronal damage, statistical analysis between groups was performed using ANOVA followed by a Fisher's test for multiple comparisons using the Statview software (Fisher R A, 1946a, Statistical Methods for Research Workers (10th edition) Oliver & Boyd, Edinburgh; Fisher R A, 1946b, The Design of Experiments (4th edition) Oliver & Boyd, Edinburgh) Behavioral and EEG characteristics of lithium-pitocarpine status epilepticus

Li-Pilo SE = assay: Lithium-pilocarpine model (Example 2): quantification of cell densities; format: in vivo, rat
Experimental: Quantification of cell densities was performed at two times after SE: a first group was studied 14 days after SE and was composed by 7 DZP, 8 RWJ30, 11 RWJ60, 10 RWJ90, 8 RWJ120 and 8 control rats not subjected to SE. A second group used for the study of the latency to SRS was sacrificed either 8 weeks after the first SRS or at 5 months when no SRS could be seen in that delay and was composed by 7 DZP, 2 RWJ30, 3 RWJ60, 3 RWJ90, 4 RWJ120 rats. Animals were deeply anesthetized with 1.8 g/kg pentobarbital (Dolethal®, Vétoquinol, Lure, France). Brains were then removed and frozen. Serial 20 μm slices were cut in a cryostat, air-dried during several days before thionine staining. Quantification of cell densities was performed with a 10×10 boxes 1 cm^2 microscopic grid on coronal sections according to the stereotaxic coordinates of the rat brain atlas (Paxinos and Watson, 1986, The Rat Brain in Stereotaxic coordinates, 2nd ed. Academic Press, San Diego). The grid of counting was placed on a well-defined area of the cerebral structure of interest and counting was carried out with a microscopic enlargement of 200- or 400-fold defined for each single cerebral structure. Cell counts were performed twice on each side of three adjacent sections for each region by a single observer unaware of the animal's treatment. The number of cells obtained in the 12 counted fields in each cerebral structure was averaged. This procedure was used to minimize the potential errors that could result from double counting leading to overestimation of cell numbers. […] Counts involved only neurons with cell bodies larger than 10 μm. Cells with small cell bodies were considered as glial cells and were not counted.
For neuronal damage, statistical analysis between groups was performed by means of a one-way analysis of variance followed by a post-hoc Scheffe's test using the Statview software.

[1] = 14 days after SE, DZP 2.5 mg/kg i.m., mean ± S.E.M.
[2] = DZP vs control rats, 14 days after SE

## CN1C(=O)CN=C(c2ccccc2)c2cc(Cl)ccc21 [DZP, diazepam, reference compound]
Li-pilo induced SE; DZP 2 mg/kg i.m. 1 h after SE onset
  mortality during the first 48 h after SE: 23%
Li-pilo induced SE; DZP 2 mg/kg i.m., n=9
  latency to SRS: 18.2 ± 6.9 days
Li-pilo induced SE; DZP, first week
  frequency of stage IV-V SRS: 11.3 SRS per week
Li-Pilo SE; [1]
  number of neuronal cell bodies, Dorsal entorhinal, layer II: 23.5 ± 0.7
  number of neuronal cell bodies, Dorsal entorhinal, layer III: 22.3 ± 0.5
  number of neuronal cell bodies, Piriform, layer II, dorsal: 12.6 ± 4.2
  number of neuronal cell bodies, Piriform, layer II, ventral: 3.6 ± 0.7
  number of neuronal cell bodies, Piriform, layer III: 1.2 ± 1.2
  number of neuronal cell bodies, Ventral entorhinal, layer II: 21.7 ± 1.3
  number of neuronal cell bodies, Ventral entorhinal, layers III-IV: 7.7 ± 2.3
  number of neuronal cell bodies, hippocampus CA1 area: 10.9 ± 1.9
  number of neuronal cell bodies, hippocampus CA3 area: 31.3 ± 2.9
  number of neuronal cell bodies, hippocampus Hilus: 33.5 ± 3.0
Li-Pilo SE; DZP group
  damage, entorhinal cortex dorsal layers II and III/IV and ventral layer II: 18-24%
Li-Pilo SE; [2]
  cell loss, CA1 pyramidal cell layer: 85%
  cell loss, CA3: 40%
  cell loss, hilus of dentate gyrus: 66%
  cell loss, piriform cortex dorsal layer II: 66%
  cell loss, piriform cortex layer III: 94%
  cell loss, piriform cortex ventral layer II: 89%
  damage, dorsal entorhinal cortex layer II: 18%
  damage, dorsal entorhinal cortex layers III-IV: 24%
  damage, ventral entorhinal cortex layer II: 22%
  damage, ventral entorhinal cortex layers III/IV: 74%
